Assay results: patent US20160272635A1, “SUBSTITUTED DIHYDROPYRIDO[3,4-B]PYRAZINONES AS DUAL INHIBITORS OF BET PROTEINS AND POLO-LIKE KINASES” (BAYER PHARMA AKTIENGESELLSCHAFT, priority 2013, published 2016)
Read-outs that look alike come from different tables or passages of the source.

Assays:
[1] = test system: MOLM-13 cell line; assay: MOLM-13 cell proliferation assay (alamarBlue); type: cell-based; details: Homo sapiens; MOLM-13 cells, 96 hours incubation, inhibition of cell proliferation
Description: In accordance with the invention, the substances were tested for their ability to inhibit the proliferation of the MOLM-13 cell linie (Deutsche Sammlung far Mikroorganismen and Zellkulturen [German Collection of Microorganisms and Cell Cultures], ACC 554). Cell viability was determined by means of the alamarBlue® reagent (Invitrogen) in a Victor X3 Multilabel Reader (Perkin Elmer). The excitation wavelength was 530 nm and the emission wavelength […].
The MOLM-13 cells were shown at a density of 4000 cells/well in 100 μl of growth medium on 96-well microtitre plates. After overnight incubation at 37° C., the fluorescence values (CI values) were determined. The plates were then treated with various substance dilutions and incubated at 37° C. for 96 hours. Subsequently, the fluorescence values were determined (CO values). For the data analysis, the CI values were subtracted from the CO values and the results were compared between cells which had been treated with various dilutions of the substance or only with buffer solution. The IC50 values (substance concentration needed for 50% inhibition of cell proliferation) were calculated therefrom.

[2] = molecular target: T1, BRD4 bromo domain 1 [BRD4(1)] (Homo sapiens, UniProt O60885); assay: BRD4(1)/acetylated peptide H4 binding assay (TR-FRET); details: inhibition of interaction between BRD4(1) and acetylated histone H4 peptide
T1 construct: N-terminally His6-tagged BRD4(1) (amino acids 67-152); made in house; host or cells: E. coli
Source text: To assess the BRD4(1) binding strength of the substances described in this application, the ability thereof to inhibit the interaction between BRD4(1) and acetylated histone H4 in a dose-dependent manner was quantified.
For this purpose, a time-resolved fluorescence resonance energy transfer (TR-FRET) assay was used, which measures the binding between N-terminally His6-tagged BRD4(1) (amino acids 67-152) and a synthetic acetylated histone H4 (Ac-H4) peptide with sequence GRGK(Ac)GGK(Ac)GLGK(Ac)GGAK(Ac)RHGSGSK-biotin. The recombinant BRD4(1) protein produced in-house according to Filippakopoulos et al., Cell, 2012, 149:214-231 was expressed in E. coli and purified by means of (Ni-NTA) affinity and (Sephadex G-75) size exclusion chromatography. The Ac-H4 peptide can be purchased, for example, from Biosyntan (Berlin, Germany).
In the assay, typically 11 different concentrations of each substance (0.1 nM, 0.33 nM, 1.1 nM, 3.8 nM, 13 nM, 44 nM, 0.15 μM, 0.51 μM, 1.7 μM, 5.9 μM and 20 μM) were analysed as duplicates on the same microtitre plate. For this purpose, 100-fold concentrated solutions in DMSO were prepared by serial dilutions (1:3.4) of a 2 mM stock solution into a clear, 384-well microtitre plate (Greiner Bio-One, Frickenhausen, Germany). From this, 50 n1 were transferred into a black test plate (Greiner Bio-One, Frickenhausen, Germany). The test was started by the addition of 2 μl of a 2.5-fold concentrated BRD4(1) solution (final concentration typically 10 nM in the 5 μl of reaction volume) in aqueous assay buffer [50 mM HEPES pH 7.5, 50 mM sodium chloride (NaCl), 0.25 mM CHAPS and 0.05% serum albumin (BSA)] to the substances in the test plate. This was followed by a 10-minute incubation step at 22° C. for the pre-equilibration of putative complexes between BRD4(1) and the substances.
The mixture was then incubated in the dark at 22° C. for one hour and then at 4° C. for at least 3 hours and for no longer than overnight. The formation of BRD4(1)/Ac-H4 complexes was determined by the measurement of the resonance energy transfer from the streptavidin-Eu cryptate to the anti-6His-XL665 antibody present in the reaction. For this purpose, the fluorescence emission was measured at 620 nm and 665 nm after excitation at 330-350 nm in a TR-FRET measuring instrument, for example a Rubystar or Pherastar (both from BMG Lab Technologies, Offenburg, Germany) or a Viewlux (Perkin-Elmer). The ratio of the emissions at 665 nm and at 622 nm was taken as an indicator of the amount of BRD4(1)/Ac-H4 complexes formed.
The data (ratios) obtained were normalized, with 0% inhibition corresponding to the mean from the measurements for a set of controls (typically 32 data points) in which all the reagents were present. In these, in place of test substances, 50 nl of DMSO (100%) were used Inhibition of 100% corresponded to the mean from the measurements for a set of controls (typically 32 data points) in which all the reagents except BRD4(1) were present. The IC50 was determined by regression analysis based on a 4-parameter equation (minimum, maximum, IC50, Hill; Y=Max+(Min−Max)/(1+(X/IC50)Hill).

[3] = molecular target: T2, Plk-1 (Homo sapiens, UniProt P53350); assay: Plk-1 enzyme assay (indirect HTRF kinase assay); type: biochemical
T2 construct: Recombinant fusion protein consisting of GST and Plk (kinase domain 33-345); MW 36 kDa; GST; made in house; host or cells: insect cells (Hi5)
T2 sequence (P53350 33-345): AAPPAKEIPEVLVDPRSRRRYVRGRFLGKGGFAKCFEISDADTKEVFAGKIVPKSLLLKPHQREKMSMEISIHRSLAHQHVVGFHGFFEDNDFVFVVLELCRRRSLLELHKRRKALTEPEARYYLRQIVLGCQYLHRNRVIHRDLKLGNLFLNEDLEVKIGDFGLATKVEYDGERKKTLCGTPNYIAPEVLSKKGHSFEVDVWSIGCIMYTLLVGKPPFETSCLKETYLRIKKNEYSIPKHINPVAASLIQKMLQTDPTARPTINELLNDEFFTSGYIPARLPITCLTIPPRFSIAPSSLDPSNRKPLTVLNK
Description: Recombinant fusion protein consisting of GST and Plk (kinase domain 33-345; MW 36 kDa, conc 0.8 μg/μl) expressed from insect cells (Hi5) and purified by glutathione Sepharose affinity chromatography and subsequent gel filtration (Superdex 75) is used for the kinase assay. Aliquots thereof are frozen in liquid nitrogen and stored at −80° C. and, after thawing, used only once.
The assay used is an indirect HTRF assay which employs the following materials and procedures. The substrate used for the kinase reaction is the biotinylated peptide Btn-Ahx-KKLNRTLSFAEPG-amide x TFA from Biosyntan, Sample No.: 6178.1 (C-terminus in amide form). This is an artificial sequence not derived from any known protein. 50 nl of the test compounds dissolved in 100% dimethyl sulphoxide (DMSO) (final concentrations: 0 μM and concentrations in the range of 0.001-20 μM) are pre-incubated with 2 μl Plk-1 enzyme working solution in working buffer [25 mM MgCl2; 1 mM DTT; 50 mM Hepes pH 7.0; 0.01% NP40; 1× Complete; 0.05% BSA] for 30 min. The kinase reaction is then initiated by addition of 3 μl of substrate solution [adenosine triphosphate (ATP) and 1.4 μM substrate peptide (biotin-Ttds-KKLNRTLSFAEPG-NH2)] in working buffer, and, after 30 min, stopped by addition of a stopper solution (100 mM EDTA, 100 mM Hepes pH 7.5, 800 mM potassium fluoride, 0.12% BSA, 0.4 μM SA-XLent (0.05 μM, from CIS bio international, Marcoule, France), Eu^3+ cryptate-conjugated rabbit anti-mouse IgG (1.5 nM; an anti-mouse IgG antibody labelled with europium cryptate from CIS bio international, Marcoule, France), 1 nM anti-phospho-serine kinase (a phospho-specific antibody from Upstate Biotechnology, Dundee, Scotland), and incubated at 4° C. overnight.
For the test at low ATP concentration, a 1.25 ng/μl Plk-1 working solution and 16.7 μM ATP are used, for the test at high ATP concentration, a 0.039 ng/μl Plk-1 working solution and 16.7 mM ATP are used.
The amount of phosphorylated substrate peptide is then determined by measuring the resonance energy transfer from europium-labelled antibody complex to streptavidine-XLent. To this end, the fluorescence emission at 620 nm and 665 nm is measured following excitation at 350 nm in an HTRF measuring instrument, e.g. Rubystar (BMG Labtechnologies, Offenburg, Germany) or Viewlux (Perkin-Elmer). The ratio of the emissions at 665 nm and at 620 nm is taken as a measure of the amount of phosphorylated substrate peptide. The data are normalized (enzyme reaction without inhibitor=0% inhibition, all other assay components, but no enzyme=100% inhibition), and IC50 values are calculated using a 4 parameter equation (minimum, maximum, IC50, Hill; Y=max+(min−max)/(1+(X/IC50)Hill)).

[4] = 10 mM ATP (high ATP concentration), read-out: IC50 [Plk-1] (10 mM ATP)
[5] = 10 μM ATP (low ATP concentration), read-out: IC50 [Plk-1] (10 μM ATP)

Row | SMILES | IC50 [1] [nM] | IC50 [2] [nM] | IC50 [3, 4] [nM] | IC50 [3, 5] [nM]
1 | CC[C@@H]1C(=O)N(C)c2cnc(Nc3ncc(C(=O)NC4CCN(C)CC4)cc3C)cc2N1C1CCCC1 [Example 18, 6-[[(2R)-1-Cyclopentyl-2-ethyl-1,2,3,4-tetrahydro-4-methyl-3-oxopyrido[3,4-b]pyrazin-7-yl]amino]-5-methyl-N-(1-methyl-4-piperidinyl)pyridine-3-carboxamide] | 42 | 649 | 7 | 
2 | CC[C@@H]1C(=O)N(C)c2cnc(Nc3ncc(C(=O)NC4CCOCC4)cc3OC)cc2N1C1CCCC1 [Example 10, 6-[[(2R)-1-Cyclopentyl-2-ethyl-1,2,3,4-tetrahydro-4-methyl-3-oxopyrido[3,4-b]pyrazin-7-yl]amino]-5-methoxy-N-(tetrahydro-2H-pyran-4-yl)-3-pyridinecarboxamide] | 43 | 376 | 31 | 
3 | CC[C@@H]1C(=O)N(C)c2cnc(Nc3ncc(C(=O)NC(C)(C)CO)cc3OC)cc2N1C1CCCC1 [Example 11, 6-[[(2R)-1-Cyclopentyl-2-ethyl-1,2,3,4-tetrahydro-4-methyl-3-oxopyrido[3,4-b]pyrazin-7-yl]amino]-N-(2-hydroxy-1,1-dimethylethyl)-5-methoxy-3-pyridinecarboxamide] | 74 | 393 | 57 | 
4 | CC[C@@H]1C(=O)N(C)c2cnc(Nc3ncc(C4=NC(C)(C)CO4)cc3OC)cc2N1C1CCCC1 [Example 19, 1N-Cyclopentyl-7-[[5-(4,5-dihydro-4,4-dimethyl-2-oxazolyl)-3-methoxy-2-pyridinyl]amino]-(2R)-ethyl-4N-methyl-1,4-dihydropyrido[3,4-b]pyrazin-3(2H)-one] | 362 | 732 | 99 | 
5 | CC[C@@H]1C(=O)N(C)c2cnc(Nc3ncc(C(=O)NCC(F)(F)F)cc3OC)cc2N1C1CCCC1 [Example 7, 6-[[(2R)-1-Cyclopentyl-2-ethyl-1,2,3,4-tetrahydro-4-methyl-3-oxopyrido[3,4-b]pyrazin-7-yl]amino]-5-methoxy-N-(2,2,2-trifluoroethyl)-3-pyridinecarboxamide] | 80 | 276 | 30 | 11
6 | CCc1cc(C(=O)NC2CC2)cnc1Nc1cc2c(cn1)N(C)C(=O)[C@@H](CC)N2C1CCCC1 [Example 3, 6-{[(2R)-1-Cyclopentyl-2-ethyl-4-methyl-3-oxo-1,2,3,4-tetrahydropyrido[3,4-b]pyrazin-7-yl]amino}-N-cyclopropyl-5-ethylpyridine-3-carboxamide] | 61 | 199 | 17 | 8
7 | CC[C@@H]1C(=O)N(C)c2cnc(Nc3ncc(C(=O)NC4CCCCC4)cc3OC)cc2N1C1CCCC1 [Example 20, N-Cyclohexyl-6-[[(2R)-1-cyclopentyl-2-ethyl-1,2,3,4-tetrahydro-4-methyl-3-oxopyrido[3,4-b]pyrazin-7-yl]amino]-5-methoxypyridine-3-carboxamide] | 101 | 878 | 35 | 
8 | CC[C@@H]1C(=O)N(C)c2cnc(Nc3ncc(C(=O)NC4CCN(C)CC4)cc3OC)cc2N1C1CCCC1 [Example 14, 6-[[(2R)-1-Cyclopentyl-2-ethyl-1,2,3,4-tetrahydro-4-methyl-3-oxopyrido[3,4-b]pyrazin-7-yl]amino]-5-methoxy-N-(1-methyl-4-piperidinyl)-3-pyridinecarboxamide] | 32 | 458 | 29 | 11
9 | CCc1cc(C(=O)N[C@@H]2CCCCNC2=O)cnc1Nc1cc2c(cn1)N(C)C(=O)[C@@H](CC)N2C1CCCC1 [Example 9, 6-{[(2R)-1-Cyclopentyl-2-ethyl-4-methyl-3-oxo-1,2,3,4-tetrahydropyrido[3,4-b]pyrazin-7-yl]amino}-5-ethyl-N-[(3R)-2-oxoazepan-3-yl]pyridine-3-carboxamide] | 76 | 343 | 17 | 
10 | COc1cc(C(=O)NC2CC2)cnc1Nc1cc2c(cn1)N(C)C(=O)C(C)N2C1CCCC1 (stereo not drawn) [Example 1, 6-{[1-Cyclopentyl-2,4-dimethyl-3-oxo-1,2,3,4-tetrahydropyrido[3,4-b]pyrazin-7-yl]amino}-N-cyclopropyl-5-methoxypyridine-3-carboxamide] | 209 | 204 |  | 15
11 | CCC1C(=O)N(C)c2cnc(Nc3ncc(C(=O)NC4CC4)cc3OC)cc2N1C1CCCC1 (stereo not drawn) [Example 4, 6-[(1-Cyclopentyl-2-ethyl-1,2,3,4-tetrahydro-4-methyl-3-oxopyrido[3,4-b]pyrazin-7-yl)amino]-N-cyclopropyl-5-methoxy-3-pyridinecarboxamide] | 68 | 450 | 31 | 
